# Molecular target: T1, human SLC6A19 (Homo sapiens, UniProt Q695T7)
# T1 construct: expressed in transfected cells
# T1 sequence (Q695T7 1-634): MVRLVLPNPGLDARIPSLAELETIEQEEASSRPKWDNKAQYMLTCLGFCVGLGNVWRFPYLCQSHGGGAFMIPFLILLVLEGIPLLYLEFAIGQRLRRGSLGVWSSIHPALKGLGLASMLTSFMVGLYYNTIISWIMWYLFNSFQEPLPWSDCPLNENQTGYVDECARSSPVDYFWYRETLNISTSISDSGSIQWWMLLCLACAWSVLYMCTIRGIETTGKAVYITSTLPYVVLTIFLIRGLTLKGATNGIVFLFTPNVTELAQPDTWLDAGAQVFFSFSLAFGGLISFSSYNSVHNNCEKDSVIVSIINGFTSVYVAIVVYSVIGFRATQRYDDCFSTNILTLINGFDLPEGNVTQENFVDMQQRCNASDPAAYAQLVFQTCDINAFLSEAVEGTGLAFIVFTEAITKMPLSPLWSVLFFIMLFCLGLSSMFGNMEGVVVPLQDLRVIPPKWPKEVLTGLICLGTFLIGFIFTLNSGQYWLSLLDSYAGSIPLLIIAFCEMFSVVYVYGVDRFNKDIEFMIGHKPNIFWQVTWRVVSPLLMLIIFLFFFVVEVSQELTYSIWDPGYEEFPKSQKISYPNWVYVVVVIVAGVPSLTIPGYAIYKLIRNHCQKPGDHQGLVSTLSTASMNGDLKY
# T1 sequence (Q9HBJ8 15-222 partner): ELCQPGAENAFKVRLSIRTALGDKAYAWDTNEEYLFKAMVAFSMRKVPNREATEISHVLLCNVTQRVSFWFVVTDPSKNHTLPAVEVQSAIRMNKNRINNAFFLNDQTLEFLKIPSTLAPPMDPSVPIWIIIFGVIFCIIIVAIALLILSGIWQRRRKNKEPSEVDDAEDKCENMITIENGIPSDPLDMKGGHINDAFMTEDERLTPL
# Experiment: Example B2: 13C6,15N-isoleucine uptake, RapidFire mass spectrometry, in CHO cells with doxycycline-inducible expression of human SLC6A19 and TMEM27
# Type: cell-based
# Details: read-out: SLC6A19_RapidFire Uptake Assay IC50
# In short: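 Labelled isoleucine (13C6,15N; 2 mM added) was given 20 min at 37 °C, following a 20-min compound pre-treatment (10-point 2-fold series, duplicate). Cells were doxycycline-induced CHO co-expressing human SLC6A19 and TMEM27. Intracellular label was quantified by RapidFire-MS peak areas against a 13C-leucine standard.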
row,IC50 [nM],SMILES
1,380,"CN(C(=O)NCc1cc2cc(Cl)ccc2[nH]1)[C@@H]1CCCN(C(=O)c2cccc3c2OCC3)C1 [Compound 100, (R)-3-((5-chloro-1H-indol-2-yl)methyl)-1-(1-(2,3-dihydrobenzofuran-7-carbonyl)piperidin-3-yl)-1-methylurea]"
2,679,"CN(C(=O)NCc1cc2cc(Cl)ccc2[nH]1)[C@@H]1CCCN(C(=O)C2(F)CCC2)C1 [Compound 127, (R)-3-((5-chloro-1H-indol-2-yl)methyl)-1-(1-(1-fluorocyclobutane-1-carbonyl)piperidin-3-yl)-1-methylurea]"
3,4240,"CN(C(=O)NCc1cc2cc(Cl)ccc2[nH]1)[C@@H]1CCCN(C(=O)Cn2cccnc2=O)C1 [Compound 66, (R)-3-((5-chloro-1H-indol-2-yl)methyl)-1-methyl-1-(1-(2-(2-oxopyrimidin-1(2H)-yl)acetyl)piperidin-3-yl)urea]"
4,12800,"CC(=O)N1CCC[C@@H](N(C)C(=O)NCc2cc3cc(Cl)cc(CO)c3[nH]2)C1 [Compound 230, (R)-1-(1-acetylpiperidin-3-yl)-3-((5-chloro-7-(hydroxymethyl)-1H-indol-2-yl)methyl)-1-methylurea]"
5,1250,"COc1ccc(CC(=O)N2CCC[C@@H](N(C)C(=O)NCc3cc4cc(Cl)ccc4[nH]3)C2)cc1F [Compound 107, (R)-3-((5-chloro-1H-indol-2-yl)methyl)-1-(1-(2-(3-fluoro-4-methoxyphenyl)acetyl)piperidin-3-yl)-1-methylurea]"
6,3810,"COCC(C)C(=O)N1CCC[C@@H](N(C)C(=O)NCc2cc3cc(Cl)ccc3[nH]2)C1 (stereo partly drawn) [Compound 82, 3-((5-chloro-1H-indol-2-yl)methyl)-1-((3R)-1-(3-methoxy-2-methylpropanoyl)piperidin-3-yl)-1-methylurea]"
7,1080,"CC(=O)N1CCC[C@@H](N(C)C(=O)NCc2cc3ccccc3[nH]2)C1 [Compound 148, (R)-3-((1H-indol-2-yl)methyl)-1-(1-acetylpiperidin-3-yl)-1-methylurea]"
8,795,"CN(C(=O)NCc1cc2cc(Cl)ccc2[nH]1)[C@@H]1CCCN(C(=O)N2CCCC2)C1 [Compound 181, (R)-3-((5-chloro-1H-indol-2-yl)methyl)-1-methyl-1-(1-(pyrrolidine-1-carbonyl)piperidin-3-yl)urea]"
9,> 7640,"CN(C(=O)NCc1cc2cc(Cl)ccc2[nH]1)[C@@H]1CCCN(C(=O)C2COCCN2)C1 (stereo partly drawn) [Compound 133, 3-((5-chloro-1H-indol-2-yl)methyl)-1-methyl-1-((3R)-1-(morpholine-3-carbonyl)piperidin-3-yl)urea]"
10,30.7,"CC(=O)N1CCC[C@@H](N(C)C(=O)NCc2[nH]c3ccc(Cl)cc3c2Cl)C1 [Compound 176, (R)-1-(1-acetylpiperidin-3-yl)-3-((3,5-dichloro-1H-indol-2-yl)methyl)-1-methylurea]"
11,366,"CN(C(=O)NCc1cc2cc(Cl)ccc2[nH]1)[C@@H]1CCCN(C(=O)c2ccccc2)C1 [Compound 52, (R)-1-(1-benzoylpiperidin-3-yl)-3-((5-chloro-1H-indol-2-yl)methyl)-1-methylurea]"

# Molecular target: T1, human SLC6A19
# Experiment: Example B-1: L-[3H]leucine uptake, liquid scintillation, in CHO cells with doxycycline-inducible expression of human SLC6A19 and TMEM27
# Type: cell-based
# Details: read-out: SLC6A19_Radioligand Uptake Assay IC50
# Method: CHO cells with doxycycline-inducible expression of human SLC6A19 and TMEM27 were maintained in T150 cell culture treated flasks using cell culture media, which consisted of 1×DMEM/F12 (Gibco, 11330057), 10% Tet System-Approved FBS (Gibco, A4736401), 100 U/mL Penicillin-Streptomycin (Gibco, 15140122), 1×GlutaMAX™ Supplement (Gibco, 35050061), 1 mM Sodium Pyruvate (Gibco, 11360070), 1.1 mg/mL Sodium Bicarbonate (Gibco, 25080094), 5 μg/mL Blasticidin (InvivoGen, ant-bl-1), 150 μg/mL Hygromycin B Gold (InvivoGen, ant-hg-5), and 500 μg/mL G418 (Sigma-Aldrich, G8168-100 mL). In preparation for the assay, this media was aspirated and 5 mL of TryμLE™ Express Enzyme (Gibco, 12605010) was added to each flask to initiate cell dissociation. The flasks were then incubated (humidified, 37° C. with 5% CO2) for 2 minutes. After incubation, 10 mL of pre-warmed cell culture media was added to each flask. The cell suspension was collected and centrifuged for 5 minutes at 200xg.
# The supernatant was aspirated and the pellet was resuspended in 5 mL pre-warmed cell culture media. The resuspended cells were counted using the Countess Cell Counting Chamber (Invitrogen) and the cell concentration of the suspension was readjusted to 1 million live cells/mL using pre-warmed cell culture media. 25 uL/well (25,000 cells/well) of readjusted cell suspension was dispensed into Poly-D-Lysine 384-well white/clear plates (Corning, 354660) using a MultiDrop Combi (Thermo Electron Corp). To induce expression of Human SLC6A19 and TMEM27, 25 uL/well of cell culture media containing 2 μg/mL doxycycline was added to the first 23 columns of each plate resulting in a final concentration of […] doxycycline. 25 μL/well of cell culture media was added to the last column of each plate, to act as negative control wells for Human SLC6A19 and TMEM27 expression. Assay plates were then incubated (humidified, 37° C. with 5% CO2) for 18 hours. After incubation, the media was aspirated and the wells were washed 4 times with pre-warmed HBSS (Sigma-Aldrich, H8264-1L) using an Apricot S-Pipette S2 (Apricot Designs), such that 5 uL/well HBSS was remaining at the end of each wash. […] At this step, the final in-well DMSO concentration in the assay plate is 0.5%. All compounds were plated in a duplicate 8-point dilution series that consisted of 3-fold dilutions. […] Afterwards, 15 uL/well of 3.2 mM hot:cold leucine solution (1:15000 ratio of L-[3,4,5-3H(N)] Leucine (Perkin Elmer, NET460001MC) to L-Leucine (Sigma-Aldrich, L8912-25G) diluted with HBSS (Sigma-Aldrich, H8264-1L)) was added using the Viaflo 384 (Integra), for a final concentration of 1.6 mM hot:cold leucine solution. The plates were then incubated (humidified, 37° C. with 5% CO2) for 20 minutes to conduct the uptake reaction. Immediately after the incubation, the plates were washed 4 times with HBSS (Sigma-Aldrich, H8264-1L) using the ELx405 Microplate Washer (Biotek) to terminate the uptake reaction. After the washes, 50 uL/well Ultima Gold Scintillation Cocktail (Perkin Elmer, 6013326) was added to each well using the Viaflo 384 (Integra). The plates were then incubated (humidified, 37° C. with 5% CO2) on a plate shaker at 200 rpm for 2 hours. After incubation, the plates were removed from the shaker and kept at room temperature for 15 minutes.
# Liquid scintillation analysis was performed using the MicroBeta2 Microplate Counter (Perkin Elmer). Activity (%) was derived by normalizing the average of positive control compound treated wells to 0% and the average of DMSO (negative control) wells to 100%. Collaborative Drug Discovery software was used for graphing data.
row,SMILES,IC50 [nM]
1,"CN(C(=O)NCc1cc2cc(Cl)ccc2[nH]1)[C@@H]1CCCN(C(=O)Cn2cc(CCN)nn2)C1 [Compound 134, (R)-1-(1-(2-(4-(2-aminoethyl)-1H-1,2,3-triazol-1-yl)acetyl)piperidin-3-yl)-3-((5-chloro-1H-indol-2-yl)methyl)-1-methylurea]",3770
2,"CC(=O)N1C[C@H](N(C)C(=O)NCc2cc3cc(Cl)ccc3[nH]2)CC[C@@H]1C (single isomer, unassigned) [Compound 192, 1-((3R,6S or 3S,6R)-1-acetyl-6-methylpiperidin-3-yl)-3-((5-chloro-1H-indol-2-yl)methyl)-1-methylurea]",558
3,"CN(C(=O)NCc1cc2cc(Cl)ccc2[nH]1)[C@@H]1CCCN(C(=O)c2ccc(F)cn2)C1 [Compound 114, (R)-3-((5-chloro-1H-indol-2-yl)methyl)-1-(1-(5-fluoropicolinoyl)piperidin-3-yl)-1-methylurea]",847
4,"CN(C(=O)NCc1cc2cc(Cl)ccc2[nH]1)[C@@H]1CCCN(C(=O)c2cc(F)ccn2)C1 [Compound 111, (R)-3-((5-chloro-1H-indol-2-yl)methyl)-1-(1-(4-fluoropicolinoyl)piperidin-3-yl)-1-methylurea]",1320

# Other lines, results leading:
row,IC50 [nM],SMILES
1,444,"CN(C(=O)NCc1cc2cc(Cl)ccc2[nH]1)[C@@H]1CCCN(C(=O)Cc2cnco2)C1 [Compound 205, (R)-3-((5-chloro-1H-indol-2-yl)methyl)-1-methyl-1-(1-(2-(oxazol-5-yl)acetyl)piperidin-3-yl)urea]"
2,1360,"CN(C(=O)NCc1cc2cc(Cl)ccc2[nH]1)[C@@H]1CCCN(C(=O)NC2CCC2)C1 [Compound 211, (R)-3-(3-((5-chloro-1H-indol-2-yl)methyl)-1-methylureido)-N-cyclobutylpiperidine-1-carboxamide]"
3,1290,"CC(=O)N1CCC[C@@H](N(C)C(=O)NCc2cc3ccc(C)cc3[nH]2)C1 [Compound 214, (R)-1-(1-acetylpiperidin-3-yl)-1-methyl-3-((6-methyl-1H-indol-2-yl)methyl)urea]"
4,892,"CN(C(=O)NCc1cc2cc(Cl)ccc2[nH]1)[C@@H]1CCCN(C(=O)NCC(F)(F)F)C1 [Compound 210, (R)-3-(3-((5-chloro-1H-indol-2-yl)methyl)-1-methylureido)-N-(2,2,2-trifluoroethyl)piperidine-1-carboxamide]"
5,715,"CC(=O)N1CCC[C@@H](N(C)C(=O)NCCc2cc(-c3cc4ccccc4[nH]3)c(Cl)cc2Cl)C1 [Compound 207, (R)-1-(1-acetylpiperidin-3-yl)-3-(2,4-dichloro-5-(1H-indol-2-yl)phenethyl)-1-methylurea]"
6,1160,"CN(C(=O)NCc1cc2cc(Cl)ccc2[nH]1)[C@@H]1CCCN(C(=O)Cc2cnoc2)C1 [Compound 246, (R)-3-((5-chloro-1H-indol-2-yl)methyl)-1-(1-(2-(isoxazol-4-yl)acetyl)piperidin-3-yl)-1-methylurea]"

# Source: patent US20260184693A1, “INHIBITORS OF SOLUTE CARRIER FAMILY 6A MEMBER 19 (SLC6A19) AND METHODS OF USE THEREOF” (Maze Therapeutics, Inc., priority 2022, published 2026)
